These results are taken from article PMC4425807, “Investigating interactions between phentermine, dexfenfluramine, and 5-HT2C agonists, on food intake in the rat” (Psychopharmacology, 2014).

In series [1] the target is T1, 5-HT2C (Homo sapiens, UniProt P28335).
T1 sequence (P28335 33-458): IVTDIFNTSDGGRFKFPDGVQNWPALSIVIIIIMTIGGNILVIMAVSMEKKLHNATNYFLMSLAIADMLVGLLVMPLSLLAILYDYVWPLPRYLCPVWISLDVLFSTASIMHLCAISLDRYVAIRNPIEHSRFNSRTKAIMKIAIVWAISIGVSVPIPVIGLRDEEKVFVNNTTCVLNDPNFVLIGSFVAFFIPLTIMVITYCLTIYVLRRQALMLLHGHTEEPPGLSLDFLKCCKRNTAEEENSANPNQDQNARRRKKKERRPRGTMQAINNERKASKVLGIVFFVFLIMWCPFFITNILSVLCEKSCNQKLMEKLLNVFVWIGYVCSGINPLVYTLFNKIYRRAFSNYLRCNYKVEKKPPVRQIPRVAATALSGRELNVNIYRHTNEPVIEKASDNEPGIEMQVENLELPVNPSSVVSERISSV
As to the kind of experiment: 125I-DOI binding at 5-HT2C. Conditions: internally generated data.

Series [2] addresses T2, 5-HT2B (Homo sapiens, UniProt P41595). As to the kind of experiment: 125I-DOI binding at 5-HT2B. As to conditions: internally generated data.
Series [3] has as its target T3, 5-HT2A (Homo sapiens, UniProt P28223). As to the kind of experiment: Functional activity at 5-HT2A. The class given is biochemical. As to conditions: internally generated data.
Series [4] has as its target T1, 5-HT2C. As to the kind of experiment: Functional activity at 5-HT2C. Conditions: internally generated data. The class given is biochemical.
The nature of series [5]: Brain drug concentrations 60 min after single oral dose (LC-MS/MS). The class given is in vivo, rat. As to conditions: for concentration at 60 min: brain. How it is done: In vivo methods employed for pharmacokinetic studies were identical to those described for food intake studies except that after dosing, rats were not placed into new cages with grid floors. At 60 min after dosing (and 30 min after food access), rats were anesthetized with isoflurane, blood was collected via cardiac puncture, and brains were removed from the cranium. Blood samples were dispensed into sodium heparinized vials and capped and stored at 4 °C. Plasma was separated from formed elements in blood by centrifugation (10 min at 3,000×g) and frozen. Brains were rinsed with ice-cold phosphate-buffered saline, blotted dry, weighed, and frozen. Plasma and brain samples were stored at −80 °C prior to bioanalytical analysis.
Brain samples were thawed on ice, placed into 50 mL plastic conical tubes, and two volumes of purified water/gram of brain was added. Brains were homogenized using a mechanical variable speed tissue homogenizer; 50 μL of brain homogenate was transferred to a 1-mL plastic tube. A volume of acetonitrile (200 μL) containing internal standard was added to brain homogenate, mixed by vortex, and centrifuged (15 min at 3,700 rpm). […] Supernatants were analysed for lorcaserin, AR630, phentermine, dexfenfluramine, and the major metabolite of dexfenfluramine, norfenfluramine. Compound concentrations were determined using a LC-MS/MS method. Analytes were separated by reverse phase chromatography (Kinetex 3 × 30 mm, C18, 2.6 μm, 100 Å, HPLC Column, Phenomenex, Torrance, CA) using a binary gradient on a Shimadzu LC system (Shimadzu Corp., Columbia, MD). The gradient consisted of 0.1 % formic acid in water and 0.1 % formic acid in acetonitrile with a flow rate of 650 μL/min.

The target of series [6] is T3, 5-HT2A. Briefly: 125I-DOI binding at 5-HT2A. Conditions: internally generated data.
Series [7] addresses T2, 5-HT2B. Briefly: Functional activity at 5-HT2B. The class given is biochemical. Conditions: internally generated data.
The next series relates to food intake in the rat. As to the kind of experiment: Food intake in food-deprived rats: single-drug dose-responses and isobolographic analysis. In kind it is in vivo. Conditions: PO, 18 h food-deprived rat, 30 min intake measured 1 h after drug; from logarithmic regressions; read-out: ED50, inhibition of food intake. How it is done: Male Sprague–Dawley rats (Harlan, San Diego, CA) weighing 250–350 g were used for behavioural studies. Upon arrival at the test facility, animals were triple housed within a holding room controlled for humidity, temperature, and light (lights off 1800–0600 hours). Rats received food (2018SX Teklad Rodent Diet) and water ad libitum unless stated otherwise. Over the course of all studies, rats were re-used up to four times, with at least one week of washout between tests. Rats were assigned to treatment groups pseudo-randomly from test to test. One week prior to initial drug testing, all rats were subject to a single food intake test which was identical to all subsequent drug tests, except that all rats received vehicle administration. Group size for all studies, including brain sampling, was eight.
Eighteen hours prior to food intake testing (1600 hours), food was removed from home cages. On the next day, animals were weighed and placed into cages with grid floors at 1000 hours, and allowed to acclimate to these cages for a 90-min period with free access to water and no food. At 1130 hours, rats were injected with compounds via oral gavage. Thirty minutes after injection (1200 hours), animals were allowed access to food. Food was then weighed at 30 min after food exposure (1 h after drug administration). Upon test conclusion, rats were returned to home cages with ad libitum access to food and water.
Doses were selected based upon previous in-house experience with these compounds and ascended in twofold steps. Two subsequent studies were run for each isobologram, with dose–responses of each compound pair run in combination with a fixed, low dose of the other (phentermine 1 mg/kg; AR630 1 mg/kg; dexfenfluramine 0.5 mg/kg; lorcaserin 1 mg/kg). To approximate the true experimental errors in these experiments, a bootstrapping with replacement approach was used (Huber [1981]; Launer and Wilkinson [1979]) in which five data sets were generated from random samples of the measured data points for both the individual dose–responses and for each drug/dose combination. […] A line of additivity with confidence limits was then drawn between the dose–responses of each compound alone.

The conditions of series [8]: combining topiramate with phentermine, humans; ref Qsymia Drug Label information; cited from earlier work.
The conditions of series [9]: when administered alone; cited from earlier work.
Setting [10] is: read-out: intrinsic activity (IA).

Like-named read-outs stand apart in the source and are kept apart here. Marks after values point to notes of the source that are not given here.

What is called Ki is the equilibrium dissociation constant of an inhibitor or competing ligand from its target. Read a low Ki as higher affinity. In general, EC50 refers to the concentration that produces a half-maximal response. Higher therefore signals lower potency in that assay. A word on the ED50: it is the midpoint of the dose-response relation.

T2 sequence (P41595 whole entry, species assumed): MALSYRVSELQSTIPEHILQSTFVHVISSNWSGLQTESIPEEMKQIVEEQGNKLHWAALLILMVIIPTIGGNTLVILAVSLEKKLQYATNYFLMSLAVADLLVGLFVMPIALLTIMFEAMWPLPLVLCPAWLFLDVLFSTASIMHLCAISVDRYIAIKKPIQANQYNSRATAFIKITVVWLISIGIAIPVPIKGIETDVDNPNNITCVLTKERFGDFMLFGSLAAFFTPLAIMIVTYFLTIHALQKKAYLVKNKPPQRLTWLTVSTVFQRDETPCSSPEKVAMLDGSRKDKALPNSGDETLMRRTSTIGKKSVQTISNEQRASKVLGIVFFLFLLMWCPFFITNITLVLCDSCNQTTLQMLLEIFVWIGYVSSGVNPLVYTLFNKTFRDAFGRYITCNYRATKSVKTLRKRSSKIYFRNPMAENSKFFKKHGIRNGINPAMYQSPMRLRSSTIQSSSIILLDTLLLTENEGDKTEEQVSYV
T3 sequence (P28223 whole entry): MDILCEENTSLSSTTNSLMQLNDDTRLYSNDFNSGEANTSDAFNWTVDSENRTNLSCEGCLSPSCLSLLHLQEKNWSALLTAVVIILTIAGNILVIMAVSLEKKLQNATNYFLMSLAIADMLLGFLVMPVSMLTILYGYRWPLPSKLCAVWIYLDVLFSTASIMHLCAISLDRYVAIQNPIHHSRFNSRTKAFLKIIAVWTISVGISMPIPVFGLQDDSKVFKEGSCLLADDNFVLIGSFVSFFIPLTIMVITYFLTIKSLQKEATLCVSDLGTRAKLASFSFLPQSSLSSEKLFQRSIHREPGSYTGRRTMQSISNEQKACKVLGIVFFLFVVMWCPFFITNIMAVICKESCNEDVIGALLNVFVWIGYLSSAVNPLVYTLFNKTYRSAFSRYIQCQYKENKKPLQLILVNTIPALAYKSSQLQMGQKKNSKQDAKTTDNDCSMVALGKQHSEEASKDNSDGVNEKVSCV

As for `C[C@@H]1CNCCN1c1cc(Cl)ccc1F` [AR630], the inhibitory constant (Ki) was found to be 4 nM on 5-HT2C [1], 100 nM at 5-HT2B [2] and 120 nM at 5-HT2A [6]. In addition, the EC50 worked out at 400 nM at 5-HT2A [3], 10 nM on 5-HT2C [4] and 1000 nM at 5-HT2B [7]. Besides, the Emax was 60% at 5-HT2A [3] (setting [10]), 100% on 5-HT2C [4] (setting [10]) and below 10% at 5-HT2B [7] (setting [10]). The “Fold-change in brain concentration, combination vs alone” value (“Fold-change in brain concentration” for short) in [5] (AR630 1 mg/kg PO with phentermine 1 mg/kg, 60 min, rat) turned out to be 1.12. In addition, the concentration at 60 min worked out at 92 ± 25 ng/g in series [5] (Sprague-Dawley, rat, oral, AR630 1 mg/kg PO with phentermine 1 mg/kg, 60 min, rat, mean ± SEM, read-out: Brain concentration, combination) and 82 ± 14 ng/g in series [5] (Sprague-Dawley, rat, po, 1 mg/kg, AR630 1 mg/kg PO alone, 60 min, rat, mean ± SEM, read-out: Brain concentration, alone). Besides, the ED50 with food intake in the rat was 4.25 mg/kg.

For the compound `CCN[C@@H](C)Cc1cccc(C(F)(F)F)c1` [Dexfenfluramine, (S)+-fenfluramine], the concentration at 60 min came out at 130 ± 13 ng/g in series [5] (Sprague-Dawley, rat, oral, 0.5 mg/kg, dexfenfluramine 0.5 mg/kg PO alone, 60 min, rat, mean ± SEM, read-out: Brain concentration, alone) and 141 ± 19 ng/g in [5] (Sprague-Dawley, rat, oral, dexfenfluramine 0.5 mg/kg PO with phentermine 1 mg/kg, 60 min, rat, mean ± SEM, read-out: Brain concentration, combination). Besides, in series [5] (dexfenfluramine 0.5 mg/kg PO with phentermine 1 mg/kg, 60 min, rat), the “Fold-change in brain concentration” value turned out to be 1.08. For the same compound, in the series with food intake in the rat, the ED50 came to 1.44 mg/kg.

For `C[C@H]1CNCCc2ccc(Cl)cc21` [Lorcaserin], the concentration at 60 min in series [5] (Sprague-Dawley, rat, oral, 1 mg/kg, lorcaserin 1 mg/kg PO alone, 60 min, rat, mean ± SEM, read-out: Brain concentration, alone) was 1380 ng/g; in series [5] (Sprague-Dawley, rat, oral, lorcaserin 1 mg/kg PO with phentermine 1 mg/kg, 60 min, rat, mean ± SEM, read-out: Brain concentration, combination), 1440 ng/g. In series [5] (lorcaserin 1 mg/kg PO with phentermine 1 mg/kg, 60 min, rat), the “Fold-change in brain concentration” value turned out to be 1.05. Also, the median effective dose (ED50) with food intake in the rat stood at 1.98 mg/kg.

As to `CC(N)Cc1cccc(C(F)(F)F)c1` (centres unmarked) [Norfenfluramine, norfenfluramine], the “brain concentration of metabolite relative to parent dexfenfluramine” value in series [5] (after dexfenfluramine PO, 60 min, rat) is recorded as “approximately sixfold”. Moreover, the “Brain concentration, alone” value in series [5] (metabolite norfenfluramine after dexfenfluramine 0.5 mg/kg PO alone, 60 min, rat, mean ± SEM) is recorded as 805 ± 50 ng/g. The “Fold-change in brain concentration” value in series [5] (metabolite norfenfluramine after dexfenfluramine 0.5 mg/kg PO with phentermine 1 mg/kg, 60 min, rat) was 0.94. For the same compound, the “Brain concentration, combination” value in [5] (metabolite norfenfluramine after dexfenfluramine 0.5 mg/kg PO with phentermine 1 mg/kg, 60 min, rat, mean ± SEM) worked out at 760 ± 27 ng/g.

For `CC(C)(N)Cc1ccccc1` [Phentermine], in [5] (Sprague-Dawley, brain/plasma, oral, phentermine dosed alone or in the various combinations, rat (data not shown), read-out: brain/plasma ratio), the Kp at 60 min is around 13. Moreover, the concentration at 60 min turned out to be 226 ± 32 ng/g in series [5] (Sprague-Dawley, rat, oral, 1 mg/kg, phentermine 1 mg/kg PO alone, 60 min, rat, AR630 study, mean ± SEM, read-out: Brain concentration, alone); 298 ± 29 ng/g in [5] (Sprague-Dawley, rat, oral, 1 mg/kg, phentermine 1 mg/kg PO alone, 60 min, rat, dexfenfluramine study, mean ± SEM, read-out: Brain concentration, alone); 298 ± 29 ng/g in [5] (Sprague-Dawley, rat, oral, 1 mg/kg, phentermine 1 mg/kg PO alone, 60 min, rat, lorcaserin study, mean ± SEM, read-out: Brain concentration, alone); 866 ± 120 ng/g in series [5] (Sprague-Dawley, rat, oral, phentermine 1 mg/kg PO with AR630 1 mg/kg, 60 min, rat, mean ± SEM, read-out: Brain concentration, combination); 787 ± 57 ng/g in [5] (Sprague-Dawley, rat, oral, phentermine 1 mg/kg PO with dexfenfluramine 0.5 mg/kg, 60 min, rat, mean ± SEM, read-out: Brain concentration, combination); 335 ± 18 ng/g in [5] (Sprague-Dawley, rat, oral, phentermine 1 mg/kg PO with lorcaserin 1 mg/kg, 60 min, rat, mean ± SEM, read-out: Brain concentration, combination). Also, the “Fold-change in brain concentration” value in series [5] (phentermine 1 mg/kg PO with AR630 1 mg/kg, 60 min, rat) is 3.80**; in series [5] (phentermine 1 mg/kg PO with AR630 1 mg/kg, 60 min, rat, listed as phentermine), 3.8; in [5] (phentermine 1 mg/kg PO with dexfenfluramine 0.5 mg/kg, 60 min, rat), 2.60**; in [5] (phentermine 1 mg/kg PO with dexfenfluramine 0.5 mg/kg, 60 min, rat, listed as phentermine), 2.6; in series [5] (phentermine 1 mg/kg PO with lorcaserin 1 mg/kg, 60 min, rat) it was 1.12; in series [5] (phentermine 1 mg/kg PO with lorcaserin 1 mg/kg, 60 min, rat, listed as phentermine), 1.1. The “increase in phentermine area under the curve” value in [8] is 42%. Besides, the median effective dose (ED50) in the series on food intake in the rat was found to be 2.45 mg/kg. Also, the “fraction of dose excreted as unchanged phentermine in urine” value in [9] is on record as 70–80%.
